Results reported in PubChem BioAssay (NCI).
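In this assay, cells in 96-well plates receive the compound at five concentrations for 48 hours. Endpoints are linearly interpolated between the surrounding concentrations. GI50 is the concentration that inhibits growth by half. At the TGI there is no net growth.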

Tests used:
Assay in all cases: NCI-60 cell line screen, 48 h
SNB-19 CNS = test system: SNB-19 CNS
SN12C renal = test system: SN12C renal
UACC-257 melanoma = test system: UACC-257 melanoma
MDA-MB-231 breast = test system: MDA-MB-231 breast
HCC-2998 colon = test system: HCC-2998 colon
CAKI-1 renal = test system: CAKI-1 renal
HT29 colon = test system: HT29 colon
HCT-116 colon = test system: HCT-116 colon
EKVX NSCLC = test system: EKVX NSCLC
HCT-15 colon = test system: HCT-15 colon
SNB-75 CNS = test system: SNB-75 CNS
TK-10 renal = test system: TK-10 renal
MCF7 breast = test system: MCF7 breast
MALME-3M melanoma = test system: MALME-3M melanoma
RPMI-8226 leukemia = test system: RPMI-8226 leukemia
PC-3 prostate = test system: PC-3 prostate
KM12 colon = test system: KM12 colon
U251 CNS = test system: U251 CNS
UO-31 renal = test system: UO-31 renal
SK-MEL-28 melanoma = test system: SK-MEL-28 melanoma
OVCAR-4 ovarian = test system: OVCAR-4 ovarian
LOX IMVI melanoma = test system: LOX IMVI melanoma
NCI-H23 lung = test system: NCI-H23 lung
786-0 renal = test system: 786-0 renal
A498 renal = test system: A498 renal
NCI-H226 lung = test system: NCI-H226 lung
T-47D breast = test system: T-47D breast
DU-145 prostate = test system: DU-145 prostate
SF-539 CNS = test system: SF-539 CNS
SK-MEL-2 melanoma = test system: SK-MEL-2 melanoma
SF-295 CNS = test system: SF-295 CNS
M14 melanoma = test system: M14 melanoma
SK-OV-3 ovarian = test system: SK-OV-3 ovarian
NCI-H460 lung = test system: NCI-H460 lung
MDA-MB-435 = test system: MDA-MB-435
UACC-62 melanoma = test system: UACC-62 melanoma
HS 578T breast = test system: HS 578T breast
SF-268 CNS = test system: SF-268 CNS
SR leukemia = test system: SR leukemia
NCI/ADR-RES ovarian = test system: NCI/ADR-RES ovarian
HOP-62 NSCLC = test system: HOP-62 NSCLC
SW-620 colon = test system: SW-620 colon
OVCAR-3 ovarian = test system: OVCAR-3 ovarian
SK-MEL-5 melanoma = test system: SK-MEL-5 melanoma
HOP-92 NSCLC = test system: HOP-92 NSCLC
MOLT-4 leukemia = test system: MOLT-4 leukemia
HL-60(TB) leukemia = test system: HL-60(TB) leukemia
COLO 205 colon = test system: COLO 205 colon
NCI-H522 lung = test system: NCI-H522 lung
BT-549 breast = test system: BT-549 breast
OVCAR-5 ovarian = test system: OVCAR-5 ovarian
A549 NSCLC = test system: A549 NSCLC
ACHN renal = test system: ACHN renal
OVCAR-8 ovarian = test system: OVCAR-8 ovarian
CCRF-CEM leukemia = test system: CCRF-CEM leukemia
RXF 393 renal = test system: RXF 393 renal
IGROV1 ovarian = test system: IGROV1 ovarian
K-562 leukemia = test system: K-562 leukemia

COc1cc2c(cc1OCCCN1CCN(CCCn3c4ccccc4c4ccccc43)CC1)N=C[C@@H]1CCCN1C2=O
GI50 (SNB-19 CNS): 0.274 µM
TGI (SNB-19 CNS): 1.17 µM
GI50 (SN12C renal): 0.243 µM
TGI (SN12C renal): 1.51 µM
GI50 (UACC-257 melanoma): 0.209 µM
TGI (UACC-257 melanoma): 0.461 µM
GI50 (MDA-MB-231 breast): 0.217 µM
TGI (MDA-MB-231 breast): 1.02 µM
GI50 (HCC-2998 colon): 0.12 µM
TGI (HCC-2998 colon): 0.37 µM
GI50 (CAKI-1 renal): 0.148 µM
TGI (CAKI-1 renal): 1.17 µM
GI50 (HT29 colon): 0.0342 µM
TGI (HT29 colon): 0.289 µM
GI50 (HCT-116 colon): 0.156 µM
TGI (HCT-116 colon): 3.93 µM
GI50 (EKVX NSCLC): 0.268 µM
TGI (EKVX NSCLC): 0.988 µM
GI50 (HCT-15 colon): 0.623 µM
TGI (HCT-15 colon): 2.15 µM
GI50 (SNB-75 CNS): < 0.0395 µM
TGI (SNB-75 CNS): 0.102 µM
GI50 (TK-10 renal): 0.086 µM
TGI (TK-10 renal): 1.07 µM
GI50 (MCF7 breast): 0.0285 µM
TGI (MCF7 breast): 0.461 µM
GI50 (MALME-3M melanoma): 0.102 µM
TGI (MALME-3M melanoma): 0.432 µM
GI50 (RPMI-8226 leukemia): 0.0106 µM
TGI (RPMI-8226 leukemia): 0.0483 µM
GI50 (PC-3 prostate): 0.0585 µM
TGI (PC-3 prostate): 0.523 µM
GI50 (KM12 colon): 0.157 µM
TGI (KM12 colon): 0.578 µM
GI50 (U251 CNS): 0.0985 µM
TGI (U251 CNS): 1.2 µM
GI50 (UO-31 renal): 0.174 µM
TGI (UO-31 renal): 0.491 µM
GI50 (SK-MEL-28 melanoma): 0.0516 µM
TGI (SK-MEL-28 melanoma): 0.151 µM
GI50 (OVCAR-4 ovarian): 0.0374 µM
TGI (OVCAR-4 ovarian): 0.357 µM
GI50 (LOX IMVI melanoma): 0.0937 µM
TGI (LOX IMVI melanoma): 0.426 µM
GI50 (NCI-H23 lung): 0.122 µM
TGI (NCI-H23 lung): 0.599 µM
GI50 (786-0 renal): 0.28 µM
TGI (786-0 renal): 1.01 µM
GI50 (A498 renal): 0.158 µM
TGI (A498 renal): 0.35 µM
GI50 (NCI-H226 lung): 0.323 µM
TGI (NCI-H226 lung): 1.48 µM
GI50 (T-47D breast): 0.206 µM
TGI (T-47D breast): 0.868 µM
GI50 (DU-145 prostate): 0.0335 µM
TGI (DU-145 prostate): 1.14 µM
GI50 (SF-539 CNS): 0.225 µM
TGI (SF-539 CNS): 0.49 µM
GI50 (SK-MEL-2 melanoma): 0.159 µM
TGI (SK-MEL-2 melanoma): 0.539 µM
GI50 (SF-295 CNS): < 0.0359 µM
TGI (SF-295 CNS): 0.235 µM
GI50 (M14 melanoma): 0.211 µM
TGI (M14 melanoma): 0.656 µM
GI50 (SK-OV-3 ovarian): 0.32 µM
TGI (SK-OV-3 ovarian): 1.27 µM
GI50 (NCI-H460 lung): 0.23 µM
TGI (NCI-H460 lung): 0.916 µM
GI50 (MDA-MB-435): 0.0553 µM
TGI (MDA-MB-435): 0.121 µM
GI50 (UACC-62 melanoma): 0.162 µM
TGI (UACC-62 melanoma): 0.347 µM
TGI (HS 578T breast): 0.254 µM
GI50 (SF-268 CNS): 0.0362 µM
TGI (SF-268 CNS): 0.289 µM
GI50 (SR leukemia): 0.0206 µM
TGI (SR leukemia): 12.4 µM
GI50 (NCI/ADR-RES ovarian): 1.37 µM
TGI (NCI/ADR-RES ovarian): 4.93 µM
GI50 (HOP-62 NSCLC): 0.242 µM
TGI (HOP-62 NSCLC): 2.46 µM
GI50 (SW-620 colon): 0.0254 µM
TGI (SW-620 colon): 0.141 µM
GI50 (OVCAR-3 ovarian): 0.0669 µM
TGI (OVCAR-3 ovarian): 1.16 µM
GI50 (SK-MEL-5 melanoma): 0.202 µM
TGI (SK-MEL-5 melanoma): 0.472 µM
GI50 (HOP-92 NSCLC): 0.0283 µM
TGI (HOP-92 NSCLC): 0.173 µM
GI50 (MOLT-4 leukemia): 0.044 µM
TGI (MOLT-4 leukemia): 0.257 µM
GI50 (HL-60(TB) leukemia): 0.0249 µM
GI50 (COLO 205 colon): 0.0749 µM
TGI (COLO 205 colon): 0.235 µM
TGI (NCI-H522 lung): 0.182 µM
GI50 (BT-549 breast): 0.0587 µM
TGI (BT-549 breast): 0.288 µM
GI50 (OVCAR-5 ovarian): 0.0625 µM
TGI (OVCAR-5 ovarian): 0.648 µM
GI50 (A549 NSCLC): 0.294 µM
TGI (A549 NSCLC): 1.28 µM
GI50 (ACHN renal): 0.43 µM
TGI (ACHN renal): 1.27 µM
GI50 (OVCAR-8 ovarian): 0.273 µM
TGI (OVCAR-8 ovarian): 1.55 µM
GI50 (CCRF-CEM leukemia): 0.0218 µM
TGI (CCRF-CEM leukemia): 0.118 µM

Cn1c(=O)c2c(n(C)c1=O)n1c(=O)c3ccccc3nc1n2C
TGI (SNB-19 CNS): > 100 µM
TGI (SN12C renal): > 100 µM
TGI (RXF 393 renal): > 100 µM
TGI (UACC-257 melanoma): > 100 µM
TGI (MDA-MB-231 breast): > 100 µM
TGI (HCC-2998 colon): > 100 µM
TGI (CAKI-1 renal): > 100 µM
TGI (HT29 colon): > 100 µM
TGI (HCT-116 colon): > 100 µM
TGI (EKVX NSCLC): > 100 µM
TGI (HCT-15 colon): > 100 µM
TGI (SNB-75 CNS): > 100 µM
TGI (TK-10 renal): > 100 µM
TGI (MCF7 breast): > 100 µM
TGI (RPMI-8226 leukemia): > 100 µM
TGI (PC-3 prostate): > 100 µM
TGI (KM12 colon): > 100 µM
TGI (U251 CNS): > 100 µM
TGI (UO-31 renal): > 100 µM
TGI (SK-MEL-28 melanoma): > 100 µM
TGI (OVCAR-4 ovarian): > 100 µM
TGI (LOX IMVI melanoma): > 100 µM
TGI (NCI-H23 lung): > 100 µM
TGI (786-0 renal): > 100 µM
TGI (A498 renal): > 100 µM
TGI (NCI-H226 lung): 73.2 µM
TGI (T-47D breast): > 100 µM
TGI (DU-145 prostate): > 100 µM
TGI (SF-539 CNS): > 100 µM
TGI (SK-MEL-2 melanoma): > 100 µM
TGI (SF-295 CNS): > 100 µM
TGI (IGROV1 ovarian): > 100 µM
TGI (M14 melanoma): > 100 µM
TGI (SK-OV-3 ovarian): > 100 µM
TGI (MDA-MB-435): > 100 µM
TGI (UACC-62 melanoma): > 100 µM
TGI (HS 578T breast): > 100 µM
TGI (SF-268 CNS): > 100 µM
TGI (SR leukemia): > 100 µM
TGI (NCI/ADR-RES ovarian): > 100 µM
TGI (HOP-62 NSCLC): > 100 µM
TGI (SW-620 colon): > 100 µM
TGI (OVCAR-3 ovarian): > 100 µM
TGI (SK-MEL-5 melanoma): > 100 µM
TGI (HOP-92 NSCLC): > 100 µM
TGI (MOLT-4 leukemia): > 100 µM
TGI (COLO 205 colon): > 100 µM
TGI (NCI-H522 lung): > 100 µM
TGI (BT-549 breast): > 100 µM
TGI (OVCAR-5 ovarian): > 100 µM
TGI (A549 NSCLC): > 100 µM
TGI (ACHN renal): > 100 µM
TGI (K-562 leukemia): > 100 µM
TGI (OVCAR-8 ovarian): > 100 µM
TGI (CCRF-CEM leukemia): > 100 µM
